Assay [1] has as its system animal models (mice) induced with a metabolic disease by a long-term high fat diet. The assay can be described thus: Comparative measurement of blood glucose in animal models induced with a metabolic disease. The class given is in vivo, C57BL/6 inbred mice. The note with it: 12 weeks of feeding, compared with control or comparison groups. The text has this: The effects of rice containing resveratrol of the present invention at high concentration on a metabolic disease were examined using animal models (mice) induced with a metabolic disease by a long-term high fat diet. Particularly, each of 15 C57BL/6 inbred mice was fed with a high fat diet for 12 weeks, thereby establishing models induced with a metabolic disease such as diabetes, obesity, hyperlipidemia, hypercholesterolemia, etc. Next, the feed produced from seeds of transformed rice or Dongjin rice was distributed to animals for 12 weeks. After 12 weeks of distribution, via blood sampling from a tail vein once every 3 weeks, blood glucose, cholesterol, etc., were analyzed, thereby examining the effects of resveratrol-enriched transgenic rice and transformed rice in animal models induced with a metabolic disease. As described above, after feeding feed for experimental animals, in which carbohydrate components were replaced with Dongjin rice and resveratrol-enriched transgenic rice to mice induced with a metabolic disease, the level of blood glucose was measured (FIG. 2). […] As described above, after feeding the feed, in which carbohydrate components were replaced with Dongjin rice and resveratrol-enriched transgenic rice, to mice with an induced metabolic disease, the level of blood glucose was measured (FIG. 5).

Assay [2] relates to yeasts. The note with it: on average, when resveratrol is added; cited from earlier work.

In the case of `Oc1ccc(C=Cc2cc(O)cc(O)c2)cc1` [resveratrol], the “blood glucose level (result in words)” value in assay [1] was “did not show a remarkable difference”. Moreover, the “increase of the life span of yeasts” value in assay [2] is listed as 70%.

Source of the values: patent publication US9840716B2, “Resveratrol-enriched rice and the use thereof” (REPUBLIC OF KOREA (MANAGEMENT: RURAL DEVELOPMENT …, priority 2012, dated 2017).
